Experimental data published in EP4640694A1, “SELF-ASSEMBLING PEPTIDE” (CYTOPORT (TIANJIN) BIOTECHNOLOGY CO., LTD, priority 2022, dated 2025).
Where a SMILES comes first, the peptide text is derived from it. [ ]: non-standard residue; d: D form. Hyp = O=C(O)[C@@H]1C[C@@H](O)CN1

How the values were obtained:
[1] = tested on: HepG2 cells; assay: Cytocompatibility: relative viability (CCK-8) and cell counting over 5 days; assay type: cell-based; conditions: 0.1%, 0.3%, 0.5%, 0.7% peptide, 5 days without medium change
Procedure: The method in Experiment I for preparing a cell suspension at a concentration of 5×10^5 cells/mL was used to prepare a cell suspension at a concentration of 5×10^4 cells/mL. The cells obtained at a concentration of 5×10^4 cells/mL were inoculated into 96-well plates with each well containing about 5,000 cells. In the experimental groups, the self-assembling peptide sol prepared according to the method in Example 2 was added to achieve the concentrations of polypeptide of 0.1%, 0.3%, 0.5%, and 0.7% in the final system. In the control group, an equal volume of PBS buffer was added to replace the peptide solution, respectively. […] During the experiment, 10% of the culture volume of CCK-8 kit was added every 24 hours, and after incubation for 30 minutes, the OD values of each group were measured using an enzyme labeler (parameter setting: primary wavelength of 450 nm, secondary wavelength of 630 nm), and all experiments were set up with 5 parallel groups, and the results of the experiments were shown in Figure 9A. Relative cell viability was calculated using the formula below: Relative cell viability (%) = (At−A0t)/(A1−A01) × 100%; [formula]
Wherein At is the average OD values measured after t days of culturing cells. A0t is the average value of blank background measured after t days. […]

[2] = tested on: HepG2; assay: Cell condition after culture: 5-day viability of cells harvested from spheroids; assay type: cell-based; conditions: cells harvested after 15 days in 0.1 wt.% peptide, 5-day viability test
Description: In this experiment, cell spheroids cultured in Experiment III using the polypeptides as shown in SEQ ID NO.: 13 (IIIIIGOGIIGPGGEGPGGE) of the present invention at a concentration of 0.1 wt.% initiated by high-glucose medium were collected by centrifugation and digested into single cells. The applicability of the material of the present invention in cell culture and biomedical field were further evaluated by comparing the cell viability of cells cultured with the material of the present invention with that of cells cultured without the material of the present invention.
The cell spheroids in Experiment III were collected by centrifugation after 15 days of culture, and the cell spheroids were digested into single cells using trypsin, then centrifuged and collected, and an appropriate amount of high-glucose medium was added to the collected cells to prepare cell suspensions at concentrations of 5×10^5 and 5×10^4 cells/mL. Cell suspensions at a concentration of 5 ×10^4 cells/mL were inoculated into 96-well plates so that each well contained 5,000 cells. A cell suspension at a concentration of 5×10^4 cells/mL was prepared according to the method in […] for preparing a cell suspension at a concentration of 5×10^5 cells/mL and it was inoculated into a 96-well plate so that each well contained 5,000 cells, which served as a control group for this experiment. […]

[3] = Rheological experiment, energy storage modulus (G') of peptide/serum mixture; assay type: physicochemical; conditions: 0.5% peptide, 10 v/v% fetal bovine serum, neutral pH
Description: Experimental Methods: Preparation of Self-Assembling Peptide Material Samples: 2 wt% of the self-assembling peptide solution obtained in Example 2 was used, the sequences as shown in SEQ ID NO:1 (IIIIGSIIGPGGDGPGGV), SEQ ID NO:2 (IIIIGSIIGPGGEGPGGV), SEQ ID NO:3 (IIIIGSIIGOGGEGPGGV), SEQ ID NO:4 (IIIIGSIIGOGGGEGPGGV), SEQ ID NO:5 (IIIIGSIIGOGGEGPGGGV), SEQ ID NO:6 (IIIIGSIIGOGGEGPGV), SEQ ID NO:7 (IIIIGSIIGOGAEGPGGV), SEQ ID NO:8 (IIIIIGSIIOGGAEGPGGV), SEQ ID NO:9 (IIIIIGSIIGOGGVGPGGV), and SEQ ID NO: 10 (IIIIIIGSIIGOGAEGPGGVGPGGV).
Preparation of hydrogel samples formed by self-assembling peptide solutions in response to cell complete medium: 2 wt% of stock solution of self-assembling peptides obtained in Example 2 was diluted with phosphate buffer, added by fetal bovine serum to achieve a mixture solution with a final concentration of self-assembling peptide of 0.5%, a final concentration of serum of 10 v/v% with a neutral pH.
The energy storage modulus (G') of the mixture solution was measured on a 20 mm plate using MARS 60 rheometer. In order to determine the rate of formation of three-dimensional nanomatrix, the solution was placed on a plate for testing immediately after preparation. A gap of 500µm was used, mineral oil was added to the gap to prevent dehydration of the samples, and data collection commenced immediately. Dynamic Time-Scanning experiment (DTS) was performed to monitor changes in energy storage modulus (G') with time (1 Hz frequency, 1% strain) for 2000 min.

[4] = tested on: erythrocytes; assay: Erythrocyte support by different sequences under liquid conditions; assay type: cell-based; conditions: 0.01 wt% peptide, 0.1 wt% fibronectin, 1×10^8 erythrocytes
Procedure: Experimental Methods: PBS buffer was used to separately prepare a concentration of 0.1 wt% stock solutions of self-assembling peptides as shown in SEQ ID NO.: 1 (IIIIIGSIIGPGGDGPGGV), SEQ ID NO.: 2 (IIIIIGSIIGPGGEGPGGV), SEQ ID NO.: 3 (IIIIIGSIIGOGGEGPGGV), and SEQ ID NO.: 7 (IIIIIGSIIGOGAEGPGGV). These solutions were autoclaved.
Using 2 mL clear glass vials, 4 materials were prepared at concentrations of 0.1 wt%, 0.05 wt%, and 0.01 wt% in 2 mL of self-assembling peptide solution (containing a final concentration of 0.1 wt% of fibronectin) and a blank group (without self-assembling peptide solution, but containing 0.1 wt% of fibronectin). A stock solution of at a concentration of 5×10^9 erythrocytes was added to each sample to a final concentration of 1×10^8, and the mixture was homogenized by pipetting. Photographs were taken every 4 hours to compare the effects of different materials on the support for erythrocytes.

[5] = tested on: erythrocytes; assay: Erythrocyte support experiment with different initiator components; assay type: cell-based
Procedure: Experimental Methods: […] of erythrocyte stock solution (9.17×10^9/mL) was taken and diluted to 10 mL (9.17×10^7/mL) with 10 mM PBS, 4.5mL of erythrocyte dilution was added to a 10 ml of round-bottom tube and 4.5 mL of 4 mmol/L Calcein-AM solution was added, and the mixture was incubated at 37°C for 20 min and then centrifuged at 4°C, 1500r/min for 3 min. The supernatant was removed, and the pellet was resuspended in PBS, and repeated for 5 times to obtain about 1.5 mL of washed erythrocyte resuspension (1×10^8/mL) for latter use.
Experimental Results: PBS buffer was added to the erythrocyte resuspension solution to dilute the erythrocytes to 1×10^7/mL, and the mixture was allowed to stand for 4 hours, and the result was shown in Tube A in Figure 6.
The 1 wt% of self-assembling peptide solution (SEQ ID NO.:3) obtained in Example 2 was added ro make the final peptide concentration in the system of 0.05 wt% and the final concentration of erythrocytes of 1×10^7/mL, and the mixture was allowed to stand for 4 hours, and the result was shown in Tube B in Figure 6.
The mixed solution of polypeptide as shown in SEQ ID NO.:3 with lysine obtained in Example 3 was added to the erythrocytes resuspension solution, i.e., the polypeptide formed a three-dimensional network scaffold material in the presence of lysine, achieving a final peptide concentration in the system of 0.05 wt.%, mixing well and standing, and the result was shown in Tube C in Figure 6.
(§1) The mixted solution of self-assembling peptide as shown in SEQ ID NO.:3 with gentamicin obtained in Example 2 was added to the erythrocytes resuspension solution, i.e., the polypeptide formed the three-dimensional network scaffold material in the presence of gentamicin, achieving a final peptide concentration in the system of 0.05 wt.%, mixing well and standing, and the result was shown in Tube D in Figure 6.
as §1, with “with polylysine” for “with gentamicin”, “the self-assembling peptide” for “the polypeptide”, “of polylysine,” for “of gentamicin,”, “Tube E” for “Tube D”
as §1, with “with fibrinogen” for “with gentamicin”, “Example 3” for “Example 2”, “the self-assembling peptide” for “the polypeptide”, “of fibrinogen,” for “of gentamicin,”, “Tube F” for “Tube D”

[6] = tested on: mouse mesenchymal stem cells; assay: Cell storage at 4°C, Calcein-AM/PI live/dead staining by flow cytometry; assay type: cell-based; conditions: for survival rate of mouse mesenchymal stem cells: 3D storage group, 0.05% peptide
Procedure: Experimental Methods: Storage of mouse mesenchymal stem cells at 4°C was taken as an example in this experiment. The isolated mouse mesenchymal stem cells were mixed well by pipetting, […] aliquots were dispensed into freezing tubes, and mixed well by pipetting so that their cell concentration was about 1×10^6 cells/mL. In 3D group, mouse serum, 1% of double antibody of 50% MAP+50% SFEM storage solution and the polypeptide as shown in SEQ ID NO.:20 (FLIVIGOGIIGOGGEGPGGE) were added to a final concentration of 0.05%. In 2D group, mouse serum and 1% of double antibody of 50% MAP+50% SFEM storage solution were added, followed by storage in a 4°C refrigerator.
Cell viability test: • (1) The preserved cells were thoroughly pipetted and mixed well, 500 µL of each cell suspension was taken into a 1.5 mLEP tube, PBS was added for washing, followed by centrifugation at 1,500 rpm for 10 minutes; and • (2) The supernatant was discarded, and the cells were resuspended in 150 µL of 1% PBA solution. Then, 150 µL of live/dead cell staining working solution was added, mixed thoroughly, and incubated at 37°C in a light-protected manner for 15 minutes. The samples were analyzed using a flow cytometer.

**Q.** Which “growth curve (cell counting) over 5 days” value [1] does the source give for CC[C@H](C)[C@H](N)C(=O)N[C@H](C(=O)N[C@H](C(=O)N[C@H](C(=O)N[C@H](C(=O)NCC(=O)N1C[C@H](O)C[C@H]1C(=O)NCC(=O)N[C@H](C(=O)N[C@H](C(=O)NCC(=O)N1CCC[C@H]1C(=O)NCC(=O)NCC(=O)N[C@@H](CCC(=O)O)C(=O)NCC(=O)N1CCC[C@H]1C(=O)NCC(=O)NCC(=O)N[C@@H](CCC(=O)O)C(=O)O)[C@@H](C)CC)[C@@H](C)CC)[C@@H](C)CC)[C@@H](C)CC)[C@@H](C)CC)[C@@H](C)CC [SEQ ID NO.: 13, IIIIIGOGIIGPGGEGPGGE] (H-IIIIIG[Hyp]GIIGPGGEGPGGE-OH) here?
**A.** grew with a relatively uniform and stable proliferation rate

**Q.** And the “relative cell viability over 5 days (CCK-8)” value [1]?
**A.** uniform and continuous steady increase in cell viability

**Q.** And the “cell viability of harvested cells compared with control group” value [2]?
**A.** slightly better than that of the control group

**Q.** For IIIIIGSIIGOGGGEGPGGGV [SEQ ID NO.: 5], which “hydrogel structure and elasticity in response to serum” value (from here on “hydrogel structure and elasticity”) [3] is on record?
**A.** could still form a hydrogel structure but with weaker elasticity

**Q.** With IIIIIGSIIGOGGGEGPGV [SEQ ID NO.: 6] as the molecule, how does the “hydrogel structure and elasticity” value [3] read?
**A.** could still form a hydrogel structure but with weaker elasticity

**Q.** Which results are given for IIIIIGSIIGOGGGEGPGGV [SEQ ID NO.: 3]?
**A.** time at which significant sedimentation of erythrocytes was shown [4]: 32 h; erythrocyte distribution ([5]; Tube B: 0.05 wt% peptide alone, no initiator, 1×10^7/mL erythrocytes, 4 hours): significant sedimentation; erythrocyte distribution ([5]; Tube C: 0.05 wt.% peptide with lysine): stereoscopic distribution; erythrocyte distribution ([5]; Tube D: 0.05 wt.% peptide with gentamicin): stereoscopic distribution; erythrocyte distribution ([5]; Tube E: 0.05 wt.% peptide with polylysine): stereoscopic distribution; erythrocyte distribution ([5]; Tube F: 0.05 wt.% peptide with fibrinogen): three-dimensional stereoscopic dispersion of the erythrocytes

**Q.** For FLIVIGOGIIGOGGGEGPGGE [SEQ ID NO.: 20], which “survival rate of mouse mesenchymal stem cells” value ([6]; day 3 of storage (2D group 67%)) is on record?
**A.** 79%

**Q.** What about the “survival rate of mouse mesenchymal stem cells” value ([6]; day 5 of storage (2D group 43%)) of the same molecule?
**A.** 71%

**Q.** And the “increase in survival versus 2D storage” value ([6]; day 5 of storage)?
**A.** ~30%

**Q.** Which “hydrogel structure and elasticity” value [3] does the source give for IIIIGSIIGOGGGEGPGGV [SEQ ID NO.: 4] here?
**A.** could still form a hydrogel structure but with weaker elasticity
